Tests used:
[1] = test system: MOG-induced experimental autoimmune encephalomyelitis (EAE); test: First MOG EAE protocol (murine multiple sclerosis model); type: in vivo, C57BL/6 mice
Description: An experimental murine model of multiple sclerosis employing a myelin oligodendrocyte glycoprotein (MOG) peptide to induce experimental autoimmune encephalomyelitis (EAE) was employed to determine the efficacy of MGBG in preventing and treating that disease. Because of its many similarities to MS, EAE is commonly used to study pathogenesis of autoimmunity, CNS inflammation, demyelination, cell trafficking, and tolerance induction. EAE is characterized by paralysis (in some models the paralysis is remitting-relapsing), CNS inflammation and demyelination. EAE is mediated primarily by dendritic cells, myelin-specific T cells (e.g. Th1 and Th17), and M1 macrophages. B cells may also play a role in some models of EAE. Body weight also tracks disease progression. EAE is induced in C57BL/6 mice by immunization with MOG35-55 or MOG1-125 in CFA emulsion followed by administration of pertussis toxin (PTX) in PBS. The emulsion provides antigen which initiates expansion and differentiation of MOG-specific autoimmune T cells. PTX enhances EAE development by providing additional adjuvant and facilitating entrance of autoimmune T cells into the CNS.
Chronic EAE develops in C57BL/6 mice after immunization with an emulsion of MOG35-55/CFA or MOG1-125/CFA followed by injection of pertussis toxin. This model is used to test the potential of compounds to prevent or mitigate EAE disease. It can be run with the compound dosed from the time of immunization (prophylactic treatment), or with the aim of reversing the course of disease and facilitating recovery by dosing the compound from the time of EAE onset (therapeutic treatment). The model uses female C57BL/6 mice of age 10 to 14 weeks at the start of the study. Typically, EAE develops 8-18 days after immunization. EAE development is usually followed for 4 weeks (28 days) after immunization.
In prophylactic studies, treatment begins before disease onset, at the time of immunization and group assignment. Mice are assigned to treatment groups in a balanced manner to achieve groups with similar distributions of body weights. Prophylactic studies assess if treatment will affect the course of disease both before and after the first clinical signs of EAE. To compensate for the stress of treatment in prophylactic treatment studies and achieve the target disease severity, EAE may be induced with a higher dose of pertussis toxin than used in therapeutic studies. The dose of pertussis toxin is based on expected stress due to dosing (route, frequency, and formulation of vehicle).
Clinically, EAE progression is scored on a scale of 0 to 5, wherein each score represents the following clinical observations:
Inflammatory foci of approximately 20 cells were counted in each H&E stained section. When inflammatory infiltrates consisted of more than 20 cells, an estimate was made of how many foci of 20 cells were present.
The demyelination score represents an estimate of demyelinated area for each section as follows:
Unless otherwise noted, statistical analysis was performed as follows: disease incidence compared using chi-square test; mean day of EAE onset, change in body weight, and number of apoptotic cells compared using 2-tailed Student's t-test; median day of EAE onset compared using Wilcoxon's survival test; mean maximum score (MMS), end score, and demyelination scores (LFB and H&E) compared using Wilcoxon's non-parametric test.
Ten week old female C57BL/6 mice weighing 18-23 g (Taconic Farms) were divided into four groups: mock immunized (n=3) and three MOG-immunized groups receiving MGBG at 30 mpk BID (as the di-HCl monohydrate with a correction factor of 1.49), fingolimod (FTY720) at 3 mpk QD with a second mock vehicle dose, or 0.9% saline vehicle BID (n=12 each). […]

[2] = Multi-species allometric scaling, predicted human pharmacokinetic parameters; parameters: species or system humans; settings: based on Mouse, Dog, Rhesus
Description: Multi-species allometric scaling based on pharmacokinetic parameters disclosed in Tables 2 and 3 was employed to calculate predicted pharmacokinetic parameters in humans according to methods known in the art. See, e.g., Ings R M, “Interspecies scaling and comparisons in drug development and toxicokinetics,” Xenobiotica, 1990 November; 20(11):1201-31 and Khor, S P et al., “Dihydropyrimidine dehydrogenase inactivation and 5-fluorouracil pharmacokinetics: allometric scaling of animal data, pharmacokinetics and toxicodynamics of 5-fluorouracil in humans,” Cancer Chemother Pharmacol (1997) 39(3): 833-38. Expected values are given below in Tables 6 and 7.

[3] = test system: PGE2 production in carrageenan air pouch; test: Carrageenan air pouch model; type: in vivo, Lewis rats
Description: Injection of air subcutaneously will induce the formation of a connective tissue cavity lined with cells that resemble and function like a synovial lining. This method is commonly known as the Air Pouch Model and is a useful animal model of inflammation that can be generated in a relatively short period of time. The air pouch may be created by subcutaneous (SQ) injection of a volume of sterile air in the dorsal neck region. The model may be used to test the efficacy and potency of compounds such as polyamine analogues and polyamine biosynthesis inhibitors such as MGBG in reducing various cellular and biochemical indicators of inflammation when administered as an oral (PO) gavage administration. Healthy Male Lewis rats (Charles River Laboratories, Wilmington, Mass.) weighing between 175-200 g were used. […] A correction factor of 1.49 was used to account for the dihydrochloride salt/monohydrate form of MGBG. […] Air pouches were formed on the dorsum of the rats during the last 4 days of MGBG or vehicle administration prior to carrageenan injection. Briefly, rats were anesthetized with isoflurane, during which dorsal hair was removed and 20 mL of sterile air was injected subcutaneously into the intrascapular region. Pouches were allowed to develop for the next 4 days, with re-inflation (to maintain pouch volume) of pouches 1 day prior to carrageenan injection. One hour prior to carrageenan injection, animals were given their last dose of drug (MGBG, vehicle, naproxen, or dexamethasone). A 1% suspension of carrageenan (2 mL; FMC BioPolyer, Philadelphia, Pa.) suspended in saline was injected into the pouch cavity. At either 3 hours or 24 hours post-carrageenan injection, rats were euthanized by CO2 asphyxiation and 2.5 mL of PBS (Sigma Chemical, St. Louis, Mo.) was injected directly into the pouch. The pouch was opened with surgical scissors and the pouch fluid was collected using a transfer pipette. One aliquot was collected for measurement of total cell count with differential, and the other aliquot for PGE2 determination. […]

CC(/C=N/NC(=N)N)=N\NC(=N)N [MGBG, 1,1′ [methylethanediylidene]dinitrilodiguanidine]
mean clinical score (scale 0 to 5) ([1]; first 28-day study, MGBG 30 mpk BID, fingolimod 3 mpk QD, throughout/duration of experiment): below 1 | body weight, mean percent of baseline (study start) ([1]; first study, day 11): ~115% | body weight, mean percent of baseline (study start) ([1]; first study, day 24): about 108% | spinal cord histopathology (neuroinflammation, demyelination, apoptosis) ([1]; first study, day 28): reduces histopathological signs of MS | day first clinical signs became evident ([1]; first study, MGBG 30 mpk BID (vehicle day 10)): 15 days | CL ([2]; IV): 7.9 mL/min/kg | VSS ([2]; IV): 9.1 L/kg | t1/2 ([2]; IV): 13.3 h | CL ([2]; IV, Rat): 7.7 mL/min/kg | VSS ([2]; IV, Rat): 9.0 L/kg | t1/2 ([2]; IV, Rat): 13.4 h | CL ([2]; ORAL): 20.9 mL/min/kg | VSS ([2]; ORAL): 41.6 L/kg | t1/2 ([2]; ORAL): 23.0 h | CL ([2]; ORAL, Rat): 21.0 mL/min/kg | VSS ([2]; ORAL, Rat): 42.4 L/kg | t1/2 ([2]; ORAL, Rat): 23.3 h | production of PGE2 (inflammatory and basal levels) ([3]; rat pouch fluid, 3 or 24 hours post-carrageenan, naproxen 10 mg/kg, dexamethasone 1 mg/kg): selectively inhibited peak inflammatory production of PGE2, without affecting basal levels | efficacy, changes relative to control indicative of reduced inflammation ([3]; rats, MGBG 1-60 mg/kg PO once daily 6 days): efficacious

From patent US10085955B2, “Methods and compositions for treatment of demyelinating diseases” (Pathologica LLC, priority 2013, dated 2018)
